In patent US11202836B2, “PSMA targeted conjugate compounds and uses thereof” (CASE WESTERN RESERVE UNIVERSITY, priority 2018, dated 2021):
pIC50: −log10 of the molar value. Several values for one entry are separate records, joined by “and”; a condition that tells them apart may be missing. Equal entries are not always repeated. *1 amine or outer side, *2 acyl side, *3 side chain or, on linkers, in order; H or OH if unused. Where a SMILES comes first, the peptide text is derived from it. Bridges are numbered along the chain shown (N, C = ends). Roman numbers before positions name the chains, in order. [ ]: non-standard residue; d: D form. The star is where a group is joined. ξ: configuration not given here. X2 = CN1/C(=C/C=C/C=C/C2=[N+](CCCCCC(=O)*)c3ccc4ccccc4c3C2(C)C)C(C)(C)c2c1ccc1ccccc21; Hexanoyl(6-succinimido-3yl) = O=C1CC([*:1])C(=O)N1CCCCCC(=O)[*:2]; X3 = CC[C@H](C)[C@@H]([C@H](CC(=O)[*:2])OC)N(C)[*:1]; Dolaproine = CO[C@@H]([C@@H]1CCCN1)[C@@H](C)C(=O)O; Dil = CC[C@H](C)[C@H](NC)[C@@H](CC(=O)O)OC; PABC = O=C(OCc1ccc(N[*:1])cc1)[*:2]; ξγGlu = O=C(O)C(CCC(=O)[*:2])N[*:1]; X4 = C[C@@H](N*)[C@@H](O)c1ccccc1; X1 = O=C(C1CCC(CN[*:1])CC1)[*:2]; Cit = NC(=O)NCCC[C@H](N)C(=O)O; NMeV = CN[C@H](C(=O)O)C(C)C; ξE = NC(CCC(=O)O)C(=O)O; CO = O=C([*:1])[*:2]; ξK = NCCCCC(N)C(=O)O; Ahx = NCCCCCC(=O)O; ξC = NC(CS)C(=O)O

Assays:
α-tubulin = test: Immunofluorescence analysis of alpha-tubulin in PC3pip and PC3flu cells; format: cell-based; conditions: 5 nM, 24 hours
Procedure: Cells on coverslips at about 70% confluency were incubated with 5 nM of MMAE, PSMA-1-VcMMAE-Cy5.5 or PSMA-1-McMMAE-Cy5.5 for 24 hours. Cells were washed and fixed with 4% paraformaldehyde for 10 minutes, permeabilized with 0.1% Triton™ X-100 for 10 minutes, and blocked with 1% BSA for 1 hour at room temperature. Alpha-tubulin (B5-1-2) Alexa Fluor 488 Mouse Monoclonal Antibody (Invitrogen) was then added at 2 μg/mL in 0.1% BSA and incubated for 3 hours at room temperature. Cells were counterstained with DAPI, mounted with Fluor-Mount aqueous mounting solution, and observed under Leica DM4000B fluorescence microscopy at 40×.

PC3pip cells = test: In vitro cytotoxicity assay (CCK-8, 72 h), PSMA-positive cells; format: cell-based
Procedure: Cells (1,000/well) were seeded in 96-well culture plates the day before treatment. Cells were incubated with various concentrations of drugs for 72 hours and cell viability evaluated by CCK-8 (Dojindo). The concentration required to reach 50% of cell proliferation was determined (IC50) by GraphPad Prism 3.0.

[1] = Maximum tolerated dose (single i.v. dose); format: in vivo, mice; conditions: single dose i.v., tumor-free athymic nude mice, 14 days
Excerpt: Mice were monitored daily for 14 days.

[2] = test system: heterotopic PC3pip tumors; test: Heterotopic PC3pip tumor survival / antitumor study; format: in vivo; conditions: for tumor growth: 160 nmol/kg i.v. every 4 days
Excerpt: Male athymic nude mice were implanted subcutaneously with 1×10^6 of PC3pip cells under the right dorsum of the mice. When tumor size reached approximately 100 mm^3 (tumor volume=Length×width^2/2), mice received drugs through tail vein injection. […] Animals were weighed and tumor size measured every other day for 90 days. Cures were defined as no tumor present at end of the 90-day study. When tumors became too large or animals were moribund they were euthanized. Five mice were used in each group.

metastatic PC3pip model = test: Metastatic PC3pip survival study (intracardiac GFP-PC3pip); format: in vivo, mice; conditions: 160 nmol/kg every 4 days, 5 doses
Procedure: Male athymic nude mice were injected into the left ventricle of the heart with 1×10^5 GFP labeled PC3pip cells to generate bone metastasis. One week later mice received 160 nmol/kg PSMA-1-VcMMAE-Cy5.5 or PBS every 4 days with a total of 5 doses and the progression of disease was monitored by GFP imaging. Five mice were used in each group.

heterotopic C4-2 tumors = test: Heterotopic C4-2 tumor study; design: species or system mice; conditions: mouse, in vivo
Excerpt: To show versatility of the antitumor activity of PSMA-1-VcMMAE-Cy5.5, we tested it in mice bearing heterotopic C4-2 tumors, which are androgen-independent prostate cancer cells endogenously expressing PSMA.

cathepsin B = target: T1, cathepsin B (Homo sapiens, UniProt P07858); test: Enzymatic cleavage by cathepsin B (HPLC); format: in vitro ADME; conditions: human, activated human liver cathepsin B solution; 2 μM conjugate, 37° C.; read-out: half-life in the presence of cathepsin B (converted)
T1 construct: purchased Anthens Research and Technology; host or cells: human liver (tissue-derived enzyme)
Procedure: (§1) PSMA-1-VcMMAE-Cy5.5 or PSMA-1-McMMAE-Cy5.5 was added to 500 μL of activated human liver cathepsin B (Anthens Research and Technology) solution (46) to a final concentration of 2 μM and incubated at 37° C. At different time intervals, 40 μL of the solution was taken out into tubes loaded with 1 μL of 1 mM E64 protease inhibitor. The mixture was vortexed and then stored at −80° C. for future HPLC analysis to assess degradation of PSMA-1-VcMMAE-Cy5.5 or PSMA-1-McMMAE-Cy5.5. Studies were performed in triplicate.

human liver cathepsin B = target: T2, human liver cathepsin B (Homo sapiens, UniProt P07858); test: Enzymatic cleavage by cathepsin B (HPLC); format: in vitro ADME; conditions: 2 μM conjugate, 37° C.
T2 construct: purchased Anthens Research and Technology; host or cells: human liver (tissue-derived enzyme)
Procedure: as §1

PC3pip and PC3flu tumors = test: In vivo NIR imaging of mice bearing PC3pip and PC3flu tumors; conditions: 40 nmol/kg i.v.
Procedure: Under guidelines of the animal care and use committee at Case Western Reserve University (IACUC #150033) 6 to 8-week old male Balb/cathymic nude mice were implanted subcutaneously with 1×10^6 of PC3flu and PC3pip on the left and right dorsum respectively. Mice received 40 nmol/kg of PSMA-1-VcMMAE-Cy5.5 or PSMA-1-McMMAE-Cy5.5 in PBS via tail vein injection when tumors reached 10 mm in diameter. Fluorescence imaging was performed using the Maestro In Vivo Imaging system (Perkin-Elmer). Multispectral images were unmixed into their component spectra (PSMA probes, autofluorescence, and background) to quantitate the average fluorescence intensity associated with the tumors using regions of interest (ROIs) around the tumors.

[3] = Stability of conjugates incubated in PBS without enzyme (HPLC); format: physicochemical; conditions: no enzyme
Procedure: as §1
To investigate if PSMA-targeted drug conjugates were cleavable by cathepsin B, the two conjugates were incubated with or without the enzyme and chromatographed by HPLC. When the conjugates were incubated with PBS, both PSMA-1-VcMMAE-Cy5.5 and PSMA-1-McMMAE-Cy5.5 were stable (FIG. 11D).

orthotopic PC3pip tumors = test: Orthotopic PC3pip tumor survival study; format: in vivo, mice
Procedure: Surgical orthotopic tumor implantation was performed as previously reported. Tumor growth/size was monitored using Siemens Acuson […] ultrasound scanner. When the tumors were at the appropriate size (5 mm as measured by ultrasound, approximately 2 weeks) animals were given PSMA-1-VcMMAE, PSMA-1-VcMMAE-Cy5.5, or PBS every four days with a total of 5 doses. Tumors were monitored every other day by ultrasound. Each group had five mice.

Compound: CC[C@H](C)[C@@H]([C@@H](CC(=O)N1CCC[C@H]1[C@H](OC)[C@@H](C)C(=O)N[C@H](C)[C@@H](O)c1ccccc1)OC)N(C)C(=O)[C@@H](NC(=O)[C@@H](NC)C(C)C)C(C)C [MMAE, monomethyl auristatin E, reference compound] (H-[NMeV]V[Dil][Dolaproine]-X4)
- disruption of α-tubulin (α-tubulin): non-selective tubulin disruption
- selectivity, differential cytotoxicity PC3pip vs PC3flu cells (PC3pip cells; 72 hours, PC3flu IC50 over PC3pip IC50): no selectivity
- maximum tolerated dose (MTD) [1]: 700 nmol/kg
- time by which all mice died ([2]; 160 nmol/kg): ≤ 36 days
- tumor growth ([2]; 5 doses): relatively ineffective at inhibiting tumor growth

Compound: CC[C@H](C)[C@@H]([C@H](CC(=O)N1CCC[C@H]1[C@H](OC)[C@@H](C)C(=O)N[C@H](C)[C@@H](O)c1ccccc1)OC)N(C)C(=O)[C@@H](NC(=O)[C@H](C(C)C)N(C)C(=O)OCc1ccc(NC(=O)[C@H](CCCNC(N)=O)NC(=O)[C@@H](NC(=O)CCCCCN2C(=O)CC(SCC(NC(=O)C(CCC(=O)O)NC(=O)C(CCC(=O)O)NC(=O)C(CCC(=O)O)NC(=O)CCCCCNC(=O)C3CCC(CNC(=O)CCC(NC(=O)NC(CCC(=O)O)C(=O)O)C(=O)O)CC3)C(=O)NCCCCCC(=O)NC(CCCCNC(=O)CCCCC[N+]3=C(/C=C/C=C/C=C4/N(C)c5ccc6ccccc6c5C4(C)C)C(C)(C)c4c3ccc3ccccc43)C(N)=O)C2=O)C(C)C)cc1)C(C)C (stereo partly shown) [PSMA-1-VcMMAE-Cy5.5] (I: {ξE-CO-ξγGlu}-[X1][Ahx][ξE][ξE][ξE][ξC][Ahx][ξK](X2)-NH2 / II: V[Cit][PABC][NMeV]V[X3][Dolaproine]-X4; linker I:6-II:N via Hexanoyl(6-succinimido-3yl))
- animal survival (metastatic PC3pip model): all 5 treated mice survived the 90-day experimental period
- body weight loss (metastatic PC3pip model): no significant body weight loss
- response (no GFP signal) (metastatic PC3pip model): 100%
- disruption of α-tubulin (α-tubulin): selective disruption of tubulin in PC3pip cells but not in PC3flu cells
- potency to kill PC3pip cells in the presence of PSMA-1 ligand (PC3pip cells; 10 μM of PSMA-1): reduced to the same potency to kill PC3flu cells
- pIC50 (PC3pip cells; 72 hours, CCK-8): 9.08 and 9.12
- effect of protease inhibitor E64 on cell killing potency (PC3pip cells; co-incubation with 50 μM E64): reduced the potency
- cure rate (heterotopic C4-2 tumors): 40%
- weight loss (heterotopic C4-2 tumors): no weight loss
- MTD at 14 days ([1]; male, mouse, in vivo, iv): 0.48 µmol/kg
- half-life at 2 μM (cathepsin B): 19.8 min
- cleavage in the presence of cathepsin B (human liver cathepsin B): degraded rapidly
- time of peak uptake in PC3pip tumors post-injection (PC3pip and PC3flu tumors): 24 h
- stability when incubated with PBS [3]: stable
- cure at day 90 (orthotopic PC3pip tumors; every four days, 5 doses): 40%
- body weight loss (orthotopic PC3pip tumors; mouse, in vivo): No significant body weight loss
- cure rate (no tumors at end of study) ([2]; 160 nmol/kg every 4 days, 5 doses, 90 days): 60%
- tumor growth ([2]; 5 doses): effectively inhibited tumor growth as early as day 6
- tumor growth when given every 7 days ([2]; every 7 days, model not stated): greatly inhibited tumor growth
- lowest dose effectively inhibiting tumor growth ([2]; mouse, in vivo): 80 nmol/kg
